Source: paper PMC6008299, “Impact of race on dose selection of molecular-targeted agents in early-phase oncology trials” (British Journal of Cancer, 2018)

Key:
[1] = test system: patients with advanced, refractory solid tumours; assay: Phase I dose-escalation study J102 (Japan): safety, DLT, MTD; format: in vivo
Source text: Studies were approved by the Institutional Review Board at the participating institutions and regulatory authorities. Written informed consent in English and Japanese was obtained from all patients prior to enrollment.
Secondary and exploratory objectives were to evaluate PK, tumour response, and PD effects. Treatment-emergent adverse events (TEAE) were graded using the Common Terminology Criteria for Adverse Events version 4.0. A dose-limiting toxicity (DLT) was defined as a grade ≥3 clinically significant toxicity, with the exceptions of grade ≥4 anaemia and prolonged grade 3 neutropenia. Both studies were open-label, phase I dose-escalation studies. In Japan, the study was conducted at a single centre, while the US study was conducted at three sites. […] In the US, an accelerated titration design was used at low doses followed by a mCRM with EWOC. Briefly, the dose was escalated based on safety data in a single patient until a grade 2 or higher toxicity was observed during cycle 1 or the DLT period (days 1–28). […] Prophylactic granulocyte colony-stimulating factor and antiemetics were not permitted during cycle 1.

[2] = Pharmacokinetics in US cohort (U101); format: in vivo, human
Method: (§1) In both studies, the PK profile of DS-7423 was characterised during cycle 1 on days 1 and 8. For PD analysis, glucose, C-peptide, and Akt phosphorylation were measured in platelet-rich plasma collected at predose, 1, 2, 4, 6, and 24 h after dosing on days 1 and 15. Tumour assessment was performed every two cycles using Response Evaluation Criteria in Solid Tumours (RECIST) version 1.1 in both studies. 18F-Fluoro-2-deoxy-D-glucose positron emission tomography ([18F]-FDG) was performed as an exploratory endpoint at baseline and on day 4.[10]
The data cut-off for the primary analysis occurred after all patients had either discontinued the study or completed 6 months of study drug treatment. Descriptive statistics were provided for selected demographic, safety, PK, and PD data by dose and time as appropriate. Descriptive statistics on continuous data included means, medians, standard deviations, and ranges, while categorical data were summarised using frequency counts and percentages. No inferential analysis to compare dose levels was performed due to limited sample sizes. The WinNonlin software was used for PK analysis.

[3] = test system: advanced solid tumours; assay: Tumour assessment RECIST 1.1, US study; format: in vivo, human; conditions: of 27 patients
Method: as §1

[4] = 96 mg, Japanese cohort (56–96 mg group, n = 6)
[5] = 4–32 mg Japanese cohort (n = 12)
[6] = 56–96 mg Japanese cohort (n = 6)
[7] = dose level 4, US cohort (n = 1)
[8] = dose level 8, US cohort (n = 1)
[9] = dose level 16, US cohort (n = 3)
[10] = dose level 160, US cohort (n = 4)
[11] = dose level 240, US cohort (n = 7)

## CC(=O)N1CCN(c2nc3c(N4CCOCC4)nc(-c4cnc(N)nc4)nc3n2CC(F)(F)F)C[C@H]1C [DS-7423]
[1]; 56 mg, Japanese cohort (56–96 mg group, n = 6)
  Hyperglycaemia G3, n patients: 1
[1]; [4]
  Diarrhoea G3, n patients: 1
  Hyperglycaemia G3, n patients: 1
[1]; 160 mg Japanese cohort (n = 3)
  AST increased (TEAE), n patients: 0
  Abdominal pain (TEAE), n patients: 1
  Back pain (TEAE), n patients: 0
  Blood creatinine increased (TEAE), n patients: 0
  Constipation (TEAE), n patients: 1
  Cough (TEAE), n patients: 2
  Decreased appetite (TEAE), n patients: 3
  Decreased appetite G3, n patients: 1
  Dehydration (TEAE), n patients: 0
  Diarrhoea (TEAE), n patients: 2
  Diarrhoea G3, n patients: 1
  Dry mouth (TEAE), n patients: 0
  Dysgeusia (TEAE), n patients: 2
  Dyspnea (TEAE), n patients: 1
  Edema (TEAE), n patients: 1
  Fatigue (TEAE), n patients: 1
  Hyperglycaemia (TEAE), n patients: 1 (1 G3)
  Hyperglycaemia G3, n patients: 1 (1 G3)
  Lung infection/ pneumonia (TEAE), n patients: 0
  Nausea (TEAE), n patients: 3
  Pyrexia (TEAE), n patients: 1
  Rash (TEAE), n patients: 2
  Stomatitis (TEAE), n patients: 2
  Vomiting (TEAE), n patients: 2
[1]; 240 mg Japanese cohort (n = 6)
  AST increased (TEAE), n patients: 0
  Abdominal pain (TEAE), n patients: 1
  Back pain (TEAE), n patients: 1
  Blood creatinine increased (TEAE), n patients: 0
  Constipation (TEAE), n patients: 1
  Cough (TEAE), n patients: 1
  Decreased appetite (TEAE), n patients: 4
  Dehydration (TEAE), n patients: 0
  Diarrhoea (TEAE), n patients: 5
  Dry mouth (TEAE), n patients: 1
  Dysgeusia (TEAE), n patients: 3
  Dyspnea (TEAE), n patients: 0
  Edema (TEAE), n patients: 3
  Fatigue (TEAE), n patients: 2
  Hyperglycaemia (TEAE), n patients: 1 (1 G4)
  Hyperglycaemia G4, n patients: 1 (1 G4)
  Lung infection/ pneumonia (TEAE), n patients: 1 (1 G3)
  Lung infection/ pneumonia G3, n patients: 1 (1 G3)
  Nausea (TEAE), n patients: 6
  Pyrexia (TEAE), n patients: 2
  Rash (TEAE), n patients: 5
  Stomatitis (TEAE), n patients: 6
  Vomiting (TEAE), n patients: 3
[1]; [5]
  AST increased (TEAE), n patients: 0
  Abdominal pain (TEAE), n patients: 1
  Back pain (TEAE), n patients: 1
  Blood creatinine increased (TEAE), n patients: 1
  Constipation (TEAE), n patients: 3
  Cough (TEAE), n patients: 1
  Decreased appetite (TEAE), n patients: 7
  Dehydration (TEAE), n patients: 0
  Diarrhoea (TEAE), n patients: 6
  Dry mouth (TEAE), n patients: 0
  Dysgeusia (TEAE), n patients: 3
  Dyspnea (TEAE), n patients: 2
  Edema (TEAE), n patients: 2
  Fatigue (TEAE), n patients: 5
  Hyperglycaemia (TEAE), n patients: 0
  Lung infection/ pneumonia (TEAE), n patients: 0
  Nausea (TEAE), n patients: 6
  Pyrexia (TEAE), n patients: 0
  Rash (TEAE), n patients: 3
  Stomatitis (TEAE), n patients: 3
  Vomiting (TEAE), n patients: 4
[1]; [6]
  AST increased (TEAE), n patients: 1
  Abdominal pain (TEAE), n patients: 1
  Back pain (TEAE), n patients: 0
  Blood creatinine increased (TEAE), n patients: 0
  Constipation (TEAE), n patients: 1
  Cough (TEAE), n patients: 1
  Decreased appetite (TEAE), n patients: 2
  Dehydration (TEAE), n patients: 0
  Diarrhoea (TEAE), n patients: 4
  Dry mouth (TEAE), n patients: 1
  Dysgeusia (TEAE), n patients: 1
  Dyspnea (TEAE), n patients: 0
  Edema (TEAE), n patients: 1
  Fatigue (TEAE), n patients: 3
  Hyperglycaemia (TEAE), n patients: 2
  Lung infection/ pneumonia (TEAE), n patients: 0
  Nausea (TEAE), n patients: 1
  Pyrexia (TEAE), n patients: 0
  Rash (TEAE), n patients: 4
  Stomatitis (TEAE), n patients: 1
  Vomiting (TEAE), n patients: 1
[1]; Japanese study, 240-mg cohort
  Grade 3 DLT: lung infections and hyperglycaemia
[1]; Japanese study, Asian patients
  MTD: 240 mg
[2]; [7]
  Mean AUCtau: 21.86 ng·h/mL
  Mean Cmax: 4 ng/mL
  T1/2: 6 to 7 h
  Tmax: 2 to 4 h
[2]; [8]
  Mean AUCtau: 131 ng·h/mL
  Mean Cmax: 20 ng/mL
  T1/2: 6 to 7 h
  Tmax: 2 to 4 h
[2]; [9]
  Mean AUCtau: 133.5 ng·h/mL
  Mean Cmax: 20 ng/mL
  T1/2: 6 to 7 h
  Tmax: 2 to 4 h
[2]; [10]
  Mean AUCtau: 1180.5 ng·h/mL
  Mean Cmax: 59 ng/mL
  T1/2: 6 to 7 h
  Tmax: 2 to 4 h
[2]; [11]
  Mean AUCtau: 1458.2 ng·h/mL
  Mean Cmax: 92.0 ng/mL
  T1/2: 12 h
  Tmax: 2 to 4 h
[3]
  Patients with tumour shrinkage and durable disease control: 5
